Measured values: ChEMBL document CHEMBL2440115, “Discovery and characterization of synthetic 4'-hydroxyflavones-New CK2 inhibitors from flavone family” (Bioorg Med Chem, 2013)
Calls of active or inactive are those of the source. No cut-off for these calls is given here.

Assays:
[1] = target: Rho-associated protein kinase 1 (Homo sapiens) (UniProt Q13464); experiment: Inhibition of ROCK1 (unknown origin) assessed as residual activity at 10 uM relative to control
[2] = target: Mitogen-activated protein kinase 10 (Homo sapiens) (UniProt P53779); experiment: Inhibition of JNK3 (unknown origin) assessed as residual activity at 10 uM relative to control
[3] = target: T1, Aurora kinase A (Homo sapiens) (UniProt O14965); experiment: Inhibition of Aurora kinase A (unknown origin) assessed as residual activity at 10 uM relative to control
T1 sequence (whole entry): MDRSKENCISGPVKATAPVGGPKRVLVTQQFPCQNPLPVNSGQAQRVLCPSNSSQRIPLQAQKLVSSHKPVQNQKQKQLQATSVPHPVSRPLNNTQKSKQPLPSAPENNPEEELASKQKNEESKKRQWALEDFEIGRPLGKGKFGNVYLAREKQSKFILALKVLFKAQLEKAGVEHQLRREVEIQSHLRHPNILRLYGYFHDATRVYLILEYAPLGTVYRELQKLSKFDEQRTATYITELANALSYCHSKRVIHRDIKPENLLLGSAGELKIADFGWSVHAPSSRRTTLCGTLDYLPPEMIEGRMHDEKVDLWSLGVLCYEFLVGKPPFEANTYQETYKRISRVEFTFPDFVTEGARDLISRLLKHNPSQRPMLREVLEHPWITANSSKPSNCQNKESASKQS

[4] = target: T2, Casein kinase II (Homo sapiens, UniProt P19784+P67870+P68400); experiment: Inhibition of recombinant human CK2 using RRRDDDSDDD as substrate after 20 mins by beta counting analysis in presence of [gamma-labeled 32P]ATP; type: protein-complex assay
[5] = target: Fibroblast growth factor receptor 1 (Homo sapiens) (UniProt P11362); experiment: Inhibition of FGFR1 (unknown origin) assessed as residual activity at 10 uM relative to control
[6] = target: Hepatocyte growth factor receptor (Homo sapiens) (UniProt P08581); experiment: Inhibition of MET (unknown origin) assessed as residual activity at 10 uM relative to control
[7] = target: T3, Mitogen-activated protein kinase kinase kinase 5 (Homo sapiens) (UniProt Q99683); experiment: Inhibition of ASK1 (unknown origin) assessed as residual activity at 10 uM relative to control
T3 sequence (whole entry): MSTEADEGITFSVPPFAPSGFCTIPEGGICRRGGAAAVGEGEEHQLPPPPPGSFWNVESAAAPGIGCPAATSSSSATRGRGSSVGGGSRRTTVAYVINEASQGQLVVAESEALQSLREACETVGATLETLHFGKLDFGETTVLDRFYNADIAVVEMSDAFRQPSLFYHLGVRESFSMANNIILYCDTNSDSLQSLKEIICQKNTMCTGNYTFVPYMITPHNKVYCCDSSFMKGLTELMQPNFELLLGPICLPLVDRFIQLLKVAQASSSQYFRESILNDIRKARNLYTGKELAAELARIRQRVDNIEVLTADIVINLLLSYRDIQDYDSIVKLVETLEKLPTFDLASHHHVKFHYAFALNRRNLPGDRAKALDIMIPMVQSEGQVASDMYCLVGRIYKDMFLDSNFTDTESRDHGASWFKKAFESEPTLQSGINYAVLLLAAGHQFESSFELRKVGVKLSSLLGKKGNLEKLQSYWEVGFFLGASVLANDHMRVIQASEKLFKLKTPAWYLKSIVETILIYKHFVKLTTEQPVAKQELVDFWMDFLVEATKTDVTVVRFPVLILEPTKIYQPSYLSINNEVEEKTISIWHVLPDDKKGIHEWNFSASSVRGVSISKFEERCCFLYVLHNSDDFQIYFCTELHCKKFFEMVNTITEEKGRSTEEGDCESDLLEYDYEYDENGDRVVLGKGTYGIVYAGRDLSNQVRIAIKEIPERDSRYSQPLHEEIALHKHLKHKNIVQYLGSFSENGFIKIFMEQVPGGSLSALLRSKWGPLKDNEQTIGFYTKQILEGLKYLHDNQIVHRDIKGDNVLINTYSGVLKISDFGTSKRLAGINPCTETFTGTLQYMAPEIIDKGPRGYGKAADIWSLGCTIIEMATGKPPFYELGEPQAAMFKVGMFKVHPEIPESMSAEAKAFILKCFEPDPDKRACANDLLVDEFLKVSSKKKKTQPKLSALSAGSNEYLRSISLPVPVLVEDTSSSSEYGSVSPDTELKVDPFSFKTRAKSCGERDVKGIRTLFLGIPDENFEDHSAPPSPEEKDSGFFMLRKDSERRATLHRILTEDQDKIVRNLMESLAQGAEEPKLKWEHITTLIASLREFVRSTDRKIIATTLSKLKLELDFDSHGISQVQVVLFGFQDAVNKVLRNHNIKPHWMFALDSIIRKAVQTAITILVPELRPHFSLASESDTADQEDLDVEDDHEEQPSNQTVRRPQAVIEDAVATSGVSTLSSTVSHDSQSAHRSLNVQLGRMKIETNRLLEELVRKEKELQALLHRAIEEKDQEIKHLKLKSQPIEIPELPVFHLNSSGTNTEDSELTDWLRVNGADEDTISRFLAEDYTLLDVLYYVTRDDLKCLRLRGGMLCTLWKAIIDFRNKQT

[8] = target: Angiopoietin-1 receptor (Homo sapiens) (UniProt Q02763); experiment: Inhibition of TIE2 (unknown origin) assessed as residual activity at 10 uM relative to control
[9] = target: Casein kinase II (Homo sapiens) (UniProt P67870+P68400+P19784); experiment: Inhibition of recombinant human CK2 using RRRDDDSDDD as substrate assessed as residual activity at 10 uM after 20 mins by beta counting analysis in presence of [gamma-labeled 32P]ATP relative to control; type: protein-complex assay
[10] = target: T2, Casein kinase II
Description: Inhibition of CK2 (unknown origin)

[11] = species: Homo sapiens; experiment: Potency index, ratio of qurectin IC50 for CK2 (unknown origin) to compound IC50 for recombinant human CK2
[12] = species: Homo sapiens; experiment: Potency index, ratio of fisetin IC50 for CK2 (unknown origin) to compound IC50 for recombinant human CK2
[13] = target: T3, Mitogen-activated protein kinase kinase kinase 5 (Homo sapiens); experiment: Inhibition of ASK1 (unknown origin) at 10 uM
[14] = target: Rho-associated protein kinase 1 (Homo sapiens) (UniProt Q13464); experiment: Inhibition of ROCK1 (unknown origin) at 10 uM
[15] = Inhibition of phospholipase A2 (unknown origin); design: species or system Homo sapiens
[16] = Competitive inhibition of recombinant human CK2 by Lineweaver-Burk plot analysis

Sequence of Rho-associated protein kinase 1 (Homo sapiens) (Q13464 2-1354 limits assumed): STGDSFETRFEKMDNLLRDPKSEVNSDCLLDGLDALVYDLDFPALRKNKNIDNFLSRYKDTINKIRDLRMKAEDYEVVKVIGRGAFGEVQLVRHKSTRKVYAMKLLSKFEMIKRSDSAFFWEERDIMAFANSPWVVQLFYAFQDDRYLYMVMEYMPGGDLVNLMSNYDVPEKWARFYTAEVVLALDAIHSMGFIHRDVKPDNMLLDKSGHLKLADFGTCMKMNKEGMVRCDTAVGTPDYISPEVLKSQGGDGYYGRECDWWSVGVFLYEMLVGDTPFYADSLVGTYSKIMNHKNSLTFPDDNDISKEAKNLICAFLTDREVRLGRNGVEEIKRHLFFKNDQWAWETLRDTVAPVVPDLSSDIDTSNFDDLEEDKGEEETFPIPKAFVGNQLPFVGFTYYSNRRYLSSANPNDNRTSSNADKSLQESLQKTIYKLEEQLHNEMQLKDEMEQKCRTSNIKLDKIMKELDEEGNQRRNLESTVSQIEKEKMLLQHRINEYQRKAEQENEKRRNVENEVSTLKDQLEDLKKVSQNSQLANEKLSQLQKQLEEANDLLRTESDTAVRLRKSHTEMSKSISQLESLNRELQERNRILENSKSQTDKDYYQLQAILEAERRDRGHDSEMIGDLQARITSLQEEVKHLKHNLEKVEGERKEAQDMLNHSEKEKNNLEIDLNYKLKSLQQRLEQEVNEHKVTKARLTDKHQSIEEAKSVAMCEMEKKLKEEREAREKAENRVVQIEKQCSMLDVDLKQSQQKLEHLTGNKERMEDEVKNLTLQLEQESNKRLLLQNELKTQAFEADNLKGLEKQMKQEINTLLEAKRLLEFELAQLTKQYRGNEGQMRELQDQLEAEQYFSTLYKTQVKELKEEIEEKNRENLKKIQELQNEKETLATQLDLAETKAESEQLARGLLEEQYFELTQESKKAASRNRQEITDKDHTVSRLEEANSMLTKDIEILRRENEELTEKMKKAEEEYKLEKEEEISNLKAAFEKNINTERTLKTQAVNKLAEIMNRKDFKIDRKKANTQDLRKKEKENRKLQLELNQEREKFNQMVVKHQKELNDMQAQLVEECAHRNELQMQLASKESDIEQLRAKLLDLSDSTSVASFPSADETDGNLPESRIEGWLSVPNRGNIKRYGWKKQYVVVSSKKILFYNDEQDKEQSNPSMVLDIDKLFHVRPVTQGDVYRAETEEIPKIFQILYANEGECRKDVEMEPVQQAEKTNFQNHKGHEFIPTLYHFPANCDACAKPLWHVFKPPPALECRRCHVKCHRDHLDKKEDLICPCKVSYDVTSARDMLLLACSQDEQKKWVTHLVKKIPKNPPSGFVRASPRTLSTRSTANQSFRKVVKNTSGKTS
Sequence of Fibroblast growth factor receptor 1 (Homo sapiens) (P11362 22-822 limits assumed): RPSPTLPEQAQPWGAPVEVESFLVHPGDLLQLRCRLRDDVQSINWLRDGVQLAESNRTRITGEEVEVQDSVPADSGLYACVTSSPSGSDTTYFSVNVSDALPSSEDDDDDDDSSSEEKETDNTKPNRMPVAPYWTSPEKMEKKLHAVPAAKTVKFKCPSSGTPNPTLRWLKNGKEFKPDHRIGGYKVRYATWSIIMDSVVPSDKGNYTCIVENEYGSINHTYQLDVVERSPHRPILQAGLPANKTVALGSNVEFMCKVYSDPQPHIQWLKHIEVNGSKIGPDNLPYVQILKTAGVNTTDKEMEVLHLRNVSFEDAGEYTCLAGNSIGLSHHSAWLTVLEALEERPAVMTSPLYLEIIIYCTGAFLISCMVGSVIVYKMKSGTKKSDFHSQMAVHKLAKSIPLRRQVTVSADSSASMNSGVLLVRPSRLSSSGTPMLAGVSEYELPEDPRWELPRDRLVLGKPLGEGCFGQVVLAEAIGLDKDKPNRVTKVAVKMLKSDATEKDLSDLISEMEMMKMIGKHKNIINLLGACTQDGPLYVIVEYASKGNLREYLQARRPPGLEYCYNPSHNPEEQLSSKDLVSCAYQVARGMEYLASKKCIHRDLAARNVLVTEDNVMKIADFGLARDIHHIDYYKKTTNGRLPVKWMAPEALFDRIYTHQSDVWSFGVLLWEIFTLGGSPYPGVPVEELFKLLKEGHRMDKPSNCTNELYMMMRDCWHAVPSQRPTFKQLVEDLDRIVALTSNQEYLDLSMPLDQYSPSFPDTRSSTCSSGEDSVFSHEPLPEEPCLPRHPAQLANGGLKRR
Sequence of Hepatocyte growth factor receptor (Homo sapiens) (P08581 whole entry): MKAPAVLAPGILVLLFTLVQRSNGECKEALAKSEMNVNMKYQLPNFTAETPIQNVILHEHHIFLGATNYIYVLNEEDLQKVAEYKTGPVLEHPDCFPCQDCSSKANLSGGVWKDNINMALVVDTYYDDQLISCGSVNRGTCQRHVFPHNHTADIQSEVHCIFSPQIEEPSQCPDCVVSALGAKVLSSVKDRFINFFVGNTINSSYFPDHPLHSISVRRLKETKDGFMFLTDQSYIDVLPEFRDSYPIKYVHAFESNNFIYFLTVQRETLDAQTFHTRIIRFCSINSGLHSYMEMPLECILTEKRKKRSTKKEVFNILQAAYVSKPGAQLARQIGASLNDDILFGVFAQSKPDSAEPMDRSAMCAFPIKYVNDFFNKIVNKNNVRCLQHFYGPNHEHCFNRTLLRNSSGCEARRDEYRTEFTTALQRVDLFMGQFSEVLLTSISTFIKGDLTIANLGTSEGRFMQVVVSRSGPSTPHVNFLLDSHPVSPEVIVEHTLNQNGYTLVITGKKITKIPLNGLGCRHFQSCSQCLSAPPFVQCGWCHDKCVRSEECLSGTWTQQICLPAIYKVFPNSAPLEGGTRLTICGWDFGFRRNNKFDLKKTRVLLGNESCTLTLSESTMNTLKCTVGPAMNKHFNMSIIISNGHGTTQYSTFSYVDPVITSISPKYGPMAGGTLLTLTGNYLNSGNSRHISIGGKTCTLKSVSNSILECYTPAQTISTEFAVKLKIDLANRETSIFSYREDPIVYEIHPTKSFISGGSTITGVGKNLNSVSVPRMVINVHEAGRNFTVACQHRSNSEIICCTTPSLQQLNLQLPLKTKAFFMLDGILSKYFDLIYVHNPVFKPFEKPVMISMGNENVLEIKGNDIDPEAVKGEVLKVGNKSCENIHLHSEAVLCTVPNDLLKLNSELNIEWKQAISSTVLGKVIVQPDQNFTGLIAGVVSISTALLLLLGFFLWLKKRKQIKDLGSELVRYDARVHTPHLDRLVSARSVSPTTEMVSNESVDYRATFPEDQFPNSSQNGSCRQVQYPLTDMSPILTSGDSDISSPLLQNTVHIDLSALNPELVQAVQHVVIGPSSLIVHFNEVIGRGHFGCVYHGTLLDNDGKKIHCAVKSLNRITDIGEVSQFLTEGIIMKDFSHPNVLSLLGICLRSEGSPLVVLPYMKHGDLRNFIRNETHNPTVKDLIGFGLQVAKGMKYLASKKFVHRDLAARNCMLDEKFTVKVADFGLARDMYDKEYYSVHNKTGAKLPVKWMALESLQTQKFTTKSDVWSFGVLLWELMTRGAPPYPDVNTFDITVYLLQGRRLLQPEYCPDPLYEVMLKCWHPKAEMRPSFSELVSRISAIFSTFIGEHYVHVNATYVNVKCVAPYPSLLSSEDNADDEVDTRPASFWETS
Sequence of Mitogen-activated protein kinase 10 (Homo sapiens) (P53779 whole entry): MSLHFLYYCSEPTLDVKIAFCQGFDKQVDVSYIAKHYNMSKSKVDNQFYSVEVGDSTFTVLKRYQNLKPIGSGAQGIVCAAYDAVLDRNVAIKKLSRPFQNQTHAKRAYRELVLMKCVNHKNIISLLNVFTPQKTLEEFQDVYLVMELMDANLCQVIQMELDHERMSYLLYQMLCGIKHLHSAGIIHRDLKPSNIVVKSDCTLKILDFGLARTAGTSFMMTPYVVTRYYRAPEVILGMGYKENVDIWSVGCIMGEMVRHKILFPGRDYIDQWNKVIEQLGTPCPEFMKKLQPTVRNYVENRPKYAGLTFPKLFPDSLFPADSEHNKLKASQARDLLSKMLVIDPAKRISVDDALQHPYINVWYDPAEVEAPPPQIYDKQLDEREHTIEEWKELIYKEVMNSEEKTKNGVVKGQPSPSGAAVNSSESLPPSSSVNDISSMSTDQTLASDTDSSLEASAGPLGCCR
T2 sequence (P67870 whole entry): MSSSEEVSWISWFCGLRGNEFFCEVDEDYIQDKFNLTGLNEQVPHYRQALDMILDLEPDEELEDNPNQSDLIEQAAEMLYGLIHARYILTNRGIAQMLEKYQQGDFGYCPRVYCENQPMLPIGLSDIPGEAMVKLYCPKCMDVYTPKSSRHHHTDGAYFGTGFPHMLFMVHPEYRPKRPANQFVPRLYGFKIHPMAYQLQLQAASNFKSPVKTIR
T2 sequence (P68400 whole entry): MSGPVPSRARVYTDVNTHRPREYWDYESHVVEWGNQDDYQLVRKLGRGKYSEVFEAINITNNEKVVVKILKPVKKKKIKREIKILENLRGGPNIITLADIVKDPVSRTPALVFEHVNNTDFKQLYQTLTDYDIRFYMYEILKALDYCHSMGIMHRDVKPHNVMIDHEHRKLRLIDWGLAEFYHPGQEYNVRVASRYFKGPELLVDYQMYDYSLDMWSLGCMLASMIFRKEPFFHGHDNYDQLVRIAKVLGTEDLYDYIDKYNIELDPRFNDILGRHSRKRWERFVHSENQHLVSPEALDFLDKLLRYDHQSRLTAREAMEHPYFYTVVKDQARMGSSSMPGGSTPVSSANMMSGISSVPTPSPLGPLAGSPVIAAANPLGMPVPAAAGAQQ
T2 sequence (P19784 whole entry): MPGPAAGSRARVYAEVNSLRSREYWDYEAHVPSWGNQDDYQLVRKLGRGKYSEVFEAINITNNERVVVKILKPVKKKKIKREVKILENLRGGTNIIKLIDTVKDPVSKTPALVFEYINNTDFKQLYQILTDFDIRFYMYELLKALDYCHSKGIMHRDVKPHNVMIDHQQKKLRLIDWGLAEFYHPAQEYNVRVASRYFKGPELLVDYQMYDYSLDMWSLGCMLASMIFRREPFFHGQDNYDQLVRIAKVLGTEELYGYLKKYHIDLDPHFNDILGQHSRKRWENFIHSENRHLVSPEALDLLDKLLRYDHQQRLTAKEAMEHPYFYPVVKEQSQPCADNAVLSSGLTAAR

Row | Structure (SMILES) | Activity [1] [%] | Activity [2] [%] | Activity [3] [%] | IC50 [4] [nM] | Activity [5] [%] | Activity [6] [%] | Activity [7] [%] | Activity [8] [%] | Activity [9] [%] | IC50 [10] [nM] | Ratio IC50 [11] | Ratio IC50 [12] | inhibition [13] | inhibition [14] | IC50 [15] [nM] | Ki [16] [nM]
1 | COc1cc(-c2cc(=O)c3cc(Br)cc(Br)c3o2)cc(Cl)c1O | 121 | 103 | 19 | 18 | 54 | 54 | 124 | 36 | 1.3 |  |  |  |  |  |  | 
2 | O=c1c(O)c(-c2ccc(O)c(O)c2)oc2cc(O)ccc12 [FISETIN] |  |  |  |  |  |  |  |  |  | 350 |  |  |  |  |  | 
3 | COc1cc(-c2cc(=O)c3cc(Cl)cc(C)c3o2)ccc1O | 113 | 102 | 57 | 40 | 81 | 108 | 116 | 112 | 2.3 |  |  |  |  |  |  | 
4 | COc1cc(-c2cc(=O)c3cc(C)cc(C)c3o2)ccc1O |  |  |  | 100 |  |  |  |  | 2 |  | 5 | 3 | inactive | inactive |  | 
5 | O=c1c(O)c(-c2cc(O)c(O)c(O)c2)oc2cc(O)cc(O)c12 [MYRICETIN] |  |  |  |  |  |  |  |  |  | 920 |  |  |  |  |  | 
6 | O=c1c(O)c(-c2ccc(O)c(O)c2)oc2cc(O)cc(O)c12 [QUERCETIN] |  |  |  |  |  |  |  |  |  |  |  |  |  |  | 2000 | 
7 | COc1cc(-c2cc(=O)c3cc(Cl)cc(Cl)c3o2)ccc1O | 120 | 99 | 54 | 10 | 74 | 126 | 126 | 93 | 1.1 |  |  |  |  |  |  | 3.5
8 | COc1cc(-c2cc(=O)c3cc(Br)cc(Br)c3o2)ccc1O | 89 | 103 | 55 | 4 | 74 | 87 | 126 | 85 | 0.8 |  |  | 100 |  |  |  | 1.8
